# Read-outs that look alike come from different tables or passages of the source.
# How the values were obtained:
# [1] = heart rate, intravenous injection in anesthetized rats; type: in vivo, rat (male wister); conditions: rat, i.v., dosage causing a 10% increase of heart rate
# Method: (§1) (ii) Measurement of the hypotensive activity
# (§2) The actions of the 9(0)-methano-Δ^6(9) -prostaglandin 1, obtained in Example 3 on the blood pressure and heart rate of rats were examined by intravenous injection under anesthesia.
# (§3) Male wister rats weighing about 250 g were used. Urethane (500 mg/kg) and α-chloralose (100 mg/kg) were intraperitoneally administered to the rats. The rats were anesthetized and fixed place.
# (§4) The test compound was dissolved in a small amount of ethanol and diluted with 0.05M Tris buffer saline (pH 9) to adjust the final ethanol concentration to not more than 5%. The solution was intravenously injected into the rats through a cathether inserted into the femoral vein.
# (§5) The blood pressure of the rats was measured by a pressure transducer through a cathether inserted into the carotid artery of the rats. The heart rate was determined from the blood pressure pulse.
# (§6) The action of the test compound on the blood pressure was expressed as the dosage (ED20, μg/kg) of the test compound which caused a 20% lowering of the mean blood pressure before administration of the compound. The action of the test compound on the heart rate was expressed as the dosage (ED10, μg/kg) of the test compound which caused a 10% increase of the heart rate from the heart rate before administration of the test compound.
# [2] = background; natural prostacyclin under neutral or acidic conditions; cited from earlier work
# [3] = test system: platelet aggregation (rabbit platelet-rich plasma, ADP); assay: in vitro inhibition of ADP-induced platelet aggregation; type: cell-based, rabbit (Japanese domestic white male); conditions: Oryctolagus cuniculus
# Method: (i) Measurement of in vitro inhibitory activity of platelet aggregation
# The in vitro platelet aggregation inhibiting activities of 9(0)-methano-Δ^6(9) -prostaglandin I, obtained in Example 3 was examined by using rabbits. Blood was withdrawn from the ear vein of Japanese domestic white male rabbits weighing 2.5 to 3.5 kg. A mixture of a 3.8% trisodium citrate solution and the blood in a ratio of 1:9 was centrifuged at a speed of 1000 rpm for 10 minutes. The upper layer was separated as platelet-rich plasma (PRP). The lower layer was further centrifuged at a speed of […] for 10 minutes. The upper layer was separated as platelet-poor plasma (PPP). The number of platelets was adjusted to 6×10^5 /μl to 7×10^5 /μl by diluting the PRP with PPP. 25 microliters of the test compound prepared as shown below was added in an amount of 250 microliters of PRP after the adjustment, and the mixture was pre-incubated at 37° C. for 2 minutes, and then 10 μM (final) of ADP was added. By using an aggregometer, changes in transmission were recorded.
# The test compound was dissolved in ethanol to a concentration of 10 mg/ml. When its activity was measured, it was used after being diluted with phosphate buffer (pH 7.4).
# The rate of inhibition of platelet aggregation was determined from the following equation. [formula] To : the transmittance of the system containing the phosphate buffer, T: the transmittance of the system to which the test compound was added.
# The minimum concentration of the compound which inhibited more than 50% of platelet aggregation was shown as an IC50 value.
# [4] = hypotensive activity, intravenous injection in anesthetized rats: blood pressure; type: in vivo, rat (male wister); conditions: rat, i.v., dosage causing a 20% lowering of mean blood pressure
# Method: as §1, §2, §3, §4, §5, §6
# [5] = test system: epithelial cells of rabbits; assay: cell protecting action against cell lethal action at pH 3; type: cell-based, rabbit; conditions: 10^-6 M
# [6] = background; cited from earlier work
# [7] = rabbit PRP, 10 μM ADP, minimum concentration which inhibited more than 50% of platelet aggregation, read-out: platelet aggregation inhibiting activity IC50
Compound,increase of heart rate ED10 [1] [µg/kg],"chemical stability, in words [2]","IC50 [3, 7] [ng/mL]",ED20 [4] [µg/kg],cell protecting action [5],"IC50 ([3]; Platelet, rabbits, induced by ADP, read-out: inhibition of platelet aggregation IC50) [ng/mL]","action-selectivity, in words [6]","biological activity relative to natural prostacyclin, in words [6]"
CCCCC[C@H](O)/C=C/[C@@H]1[C@H]2C/C(=C/CCCC(=O)O)O[C@H]2C[C@H]1O [PGI2],> 10,apt to be appreciably hydrolyzed,1.6,0.068,–,–,–,–
CCCCC[C@H](O)/C=C/[C@@H]1[C@H]2CC(CCCCC(=O)O)=C[C@H]2C[C@H]1O [9(0)-methano-Δ^6(9) -prostaglandin I1],> 30,–,5.4,1.7,has a cell protecting action,5.4,–,–
"CCCCC[C@H](O)/C=C/[C@@H]1[C@H]2C/C(=C\CCCC(=O)O)C[C@H]2C[C@H]1O [6,9-(0)-methanoprostacyclin]",–,able to satisfy the chemical stableness to perfection,–,–,–,–,not enough specific in action-selectivity,inferior to natural prostacyclin in biological activity

# — patent US4736058A, “Prostacyclins and process for production thereof” (Teijin Limited, priority 1983, dated 1988)
